This is an account of results in patent publication US20250241923A1, “A DUAL SELECTIVE PI3K DELTA AND GAMMA INHIBITORS AND/OR A SALT-INDUCIBLE KINASE 3 INHIBITOR FOR TREATING SOLID TUMORS” (Incozen Therapeutics Pvt. Ltd, priority 2022, published 2025).

Data set [1] is described as follows: Metabolic stability in liver microsomes, rat. The format is in vitro ADME. An excerpt:
(§1) In in vitro studies using liver microsomes, the metabolic stability of tenalisib followed the rank order of rat>human>dog>monkey>mouse (Table 3).

The nature of data set [2]: Metabolic stability in liver microsomes, dog. The class given is in vitro ADME.
Description: as §1

Data set [3] is described as follows: Metabolic stability in liver microsomes, human. The format is in vitro ADME.
Description: as §1

Data set [4] deals with SIK3 (Homo sapiens, UniProt Q9Y2K2). The experiment in a line: SIK3 inhibition assay (enzymatic radiometric). The note with it: 10 μM ATP. The format is biochemical.
SIK3, sequence (Q9Y2K2 whole entry): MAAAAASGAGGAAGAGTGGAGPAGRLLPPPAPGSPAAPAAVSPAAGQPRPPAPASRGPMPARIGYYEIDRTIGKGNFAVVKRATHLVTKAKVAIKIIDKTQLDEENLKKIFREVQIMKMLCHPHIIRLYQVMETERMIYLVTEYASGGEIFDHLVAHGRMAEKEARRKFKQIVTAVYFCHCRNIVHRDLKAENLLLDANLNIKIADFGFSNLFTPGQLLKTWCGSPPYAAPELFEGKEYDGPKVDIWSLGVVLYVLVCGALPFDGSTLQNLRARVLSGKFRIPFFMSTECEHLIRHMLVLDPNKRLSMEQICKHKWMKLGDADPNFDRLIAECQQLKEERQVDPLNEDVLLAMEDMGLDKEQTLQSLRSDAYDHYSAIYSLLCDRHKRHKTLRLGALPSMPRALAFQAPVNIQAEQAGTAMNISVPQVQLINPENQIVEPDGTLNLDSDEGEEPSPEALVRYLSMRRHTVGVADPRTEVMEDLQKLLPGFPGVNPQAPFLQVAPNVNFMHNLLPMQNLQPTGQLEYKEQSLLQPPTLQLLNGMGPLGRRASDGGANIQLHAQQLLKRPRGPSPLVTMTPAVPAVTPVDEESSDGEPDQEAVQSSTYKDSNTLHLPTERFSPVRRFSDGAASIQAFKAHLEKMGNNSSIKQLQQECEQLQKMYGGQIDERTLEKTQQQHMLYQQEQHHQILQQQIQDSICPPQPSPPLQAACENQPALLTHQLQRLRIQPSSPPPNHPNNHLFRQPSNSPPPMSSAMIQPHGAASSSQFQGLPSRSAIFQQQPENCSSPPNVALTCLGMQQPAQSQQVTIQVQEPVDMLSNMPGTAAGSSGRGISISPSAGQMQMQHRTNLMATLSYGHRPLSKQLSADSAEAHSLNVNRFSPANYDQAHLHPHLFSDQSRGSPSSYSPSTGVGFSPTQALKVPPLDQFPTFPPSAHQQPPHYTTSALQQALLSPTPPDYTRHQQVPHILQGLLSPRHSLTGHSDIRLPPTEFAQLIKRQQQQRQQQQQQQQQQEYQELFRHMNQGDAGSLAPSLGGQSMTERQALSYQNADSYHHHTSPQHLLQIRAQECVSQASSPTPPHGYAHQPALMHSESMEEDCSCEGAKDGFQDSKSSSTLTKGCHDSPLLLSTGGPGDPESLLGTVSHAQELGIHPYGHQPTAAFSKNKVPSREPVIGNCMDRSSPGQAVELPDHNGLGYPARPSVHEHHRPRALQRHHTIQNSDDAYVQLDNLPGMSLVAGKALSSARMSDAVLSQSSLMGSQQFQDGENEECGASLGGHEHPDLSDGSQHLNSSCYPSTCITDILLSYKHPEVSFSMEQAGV
Data set [5] has as its system SK-OV-3 ovarian cancer cell line. The experiment in a line: Anti-proliferative effect of taxol and Compound (M) (Example 10), SK-OV-3. The format is cell-based.
In data set [6] the test system is MCF-7 breast cancer cell lines. The experiment in a line: cells. The note with it: Homo sapiens, MCF7, 72 h, read-out: growth inhibition.
Data set [7] relates to MCF-7 cell lines. As to the kind of experiment: Cell proliferation (MTT), Compound M and olaparib, MCF-7. The class given is cell-based. The note with it: Homo sapiens, MCF7, olaparib alone (5 μM, FIG. 5), 72 h, read-out: growth inhibition.
Description: • MCF-7 cells were plated in MEM+10% FBS complete media at pre-determined density in a 96-well plate. • Cells were exposed to either DMSO (control) alone, Compound M alone, olaparib alone, or a combination of Compound M and olaparib. • Cells were incubated for 72 h in presence of the inhibitors. • MTT reaction was performed to determine the cell viability at the end of the treatment period and absorbance was measured at wavelength 560 and 640 nM. • % cell growth inhibitions were calculated, and Tukey's analysis was performed using GraphPad Prism to compare the treated groups.
Data set [8] deals with OVCAR-3 ovarian cancer cell lines. The experiment in a line: Anti-proliferative activity with PARP inhibitors, OVCAR-3. The note with it: Homo sapiens, read-out: growth inhibition. The class given is cell-based.
The subject of data set [9] is MDA-MB-231 breast cancer cell line. The experiment in a line: Anti-proliferative effect of taxol (Example 10), MDA-MB-231. The format is cell-based. The note with it: taxol alone (Example 10).
For data set [10], the system named is ZR.75.1 breast cancer cell line. As to the kind of experiment: Anti-proliferative effect of taxol (Example 10), ZR.75.1. The format is cell-based. The note with it: taxol alone (Example 10).
Data set [11] relates to MCF-7 breast cancer cell line. As to the kind of experiment: Anti-proliferative effect of taxol (Example 10), MCF-7. The class given is cell-based. The note with it: taxol alone (Example 10).
The test system of data set [12] is MDA-MB-231 breast cancer cell lines. As to the kind of experiment: cells. The note with it: Homo sapiens, MDA-MB-231, 72 h, read-out: growth inhibition.
Data set [13] deals with SK-OV-3 ovarian cancer cell lines. The experiment in a line: Anti-proliferative activity with PARP inhibitors, SK-OV-3. The format is cell-based. The note with it: Homo sapiens, single agent talazoparib (3 μM, FIG. 6B), read-out: growth inhibition.

With `CC[C@H](Nc1ncnc2[nH]c(O)nc12)c1oc2ccccc2c(=O)c1-c1cccc(F)c1` [Compound M, (S)-3-(3-fluorophenyl)-2-(1-((8-hydroxy-9H-purin-6-yl)amino)propyl)-4H-chromen-4-one], the “% Metabolic Stability” value in data set [1] was 58.0%; in [2], 67.6%; in data set [3], 58.5%. The molecule further had an IC50 in data set [4] of 237 nM. Besides, in data set [4], the “selectivity over the SIK1 and SIK2 isoforms” value is on record as “Selective over”. Also, the “potentiation of the activity of taxol” value in [5] (Compound (M) 3 μM added to taxol (6 nM, FIG. 7)) was “potentiated”.

For `COc1cccc2c1C(=O)c1c(O)c3c(c(O)c1C2=O)C[C@@](O)(C(=O)CO)C[C@@H]3O[C@H]1C[C@H](N)[C@H](O)[C@H](C)O1` [Doxorubicin], the inhibition at 0.05 µM in data set [6] was 42.8%.

For `O=C(c1cc(Cc2n[nH]c(=O)c3ccccc23)ccc1F)N1CCN(C(=O)C2CC2)CC1` [Olaparib], in data set [7], the inhibition at 5 µM worked out at 43.2%. Moreover, the inhibition at 3 µM in [8] (olaparib alone (3 μM, FIG. 6C)) amounted to 29.3%.

Turning to `CC(=O)O[C@H]1C(=O)[C@@]2(C)[C@H]([C@H](OC(=O)c3ccccc3)[C@]3(O)C[C@H](OC(=O)[C@H](O)[C@@H](NC(=O)c4ccccc4)c4ccccc4)C(C)=C1C3(C)C)[C@]1(OC(C)=O)CO[C@@H]1C[C@@H]2O` [Taxol], the results for the growth inhibition in data set [9], in data set [10] and in data set [11] were 44.4%, 25.8% and 17.3%, respectively. Moreover, the inhibition at 0.006 µM in [5] (Homo sapiens, taxol alone (6 nM, FIG. 7), read-out: growth inhibition) turned out to be 59.2%. In addition, the figures for the inhibition at 0.003 µM in [12] and in [6] were 34.5% and 28.8%, respectively.

On to `Cn1ncnc1[C@H]1c2n[nH]c(=O)c3cc(F)cc(c23)N[C@@H]1c1ccc(F)cc1` [talazoparib], for which, in data set [8] (single agent talazoparib (0.1 μM, FIG. 6A)), the inhibition at 0.1 µM was determined as 40.2%. Also, the inhibition at 3 µM in [13] turned out to be 50%.
